Measurements published in the kinase profiling compilation of Christmann-Franck et al. (2016).

How the values were obtained:
Assay in all cases: KINOMEscan competition binding
Conditions in all cases: compound 10.0 µM
[1] = tested on: PIK3CA (human), P42336 [I800L]
[2] = tested on: KIT (human), P10721 [V559D]
[3] = tested on: PIK3CA (human), P42336 [E545K]
[4] = tested on: KIT (human), P10721 [V559D/T670I]
[5] = tested on: PIK3CA (human), P42336 [C420R]
[6] = tested on: PIK3CA (human), P42336 [H1047Y]
Sequence of PIK3CA (human), P42336 [H1047Y] (P42336 whole entry H1047Y, looked up): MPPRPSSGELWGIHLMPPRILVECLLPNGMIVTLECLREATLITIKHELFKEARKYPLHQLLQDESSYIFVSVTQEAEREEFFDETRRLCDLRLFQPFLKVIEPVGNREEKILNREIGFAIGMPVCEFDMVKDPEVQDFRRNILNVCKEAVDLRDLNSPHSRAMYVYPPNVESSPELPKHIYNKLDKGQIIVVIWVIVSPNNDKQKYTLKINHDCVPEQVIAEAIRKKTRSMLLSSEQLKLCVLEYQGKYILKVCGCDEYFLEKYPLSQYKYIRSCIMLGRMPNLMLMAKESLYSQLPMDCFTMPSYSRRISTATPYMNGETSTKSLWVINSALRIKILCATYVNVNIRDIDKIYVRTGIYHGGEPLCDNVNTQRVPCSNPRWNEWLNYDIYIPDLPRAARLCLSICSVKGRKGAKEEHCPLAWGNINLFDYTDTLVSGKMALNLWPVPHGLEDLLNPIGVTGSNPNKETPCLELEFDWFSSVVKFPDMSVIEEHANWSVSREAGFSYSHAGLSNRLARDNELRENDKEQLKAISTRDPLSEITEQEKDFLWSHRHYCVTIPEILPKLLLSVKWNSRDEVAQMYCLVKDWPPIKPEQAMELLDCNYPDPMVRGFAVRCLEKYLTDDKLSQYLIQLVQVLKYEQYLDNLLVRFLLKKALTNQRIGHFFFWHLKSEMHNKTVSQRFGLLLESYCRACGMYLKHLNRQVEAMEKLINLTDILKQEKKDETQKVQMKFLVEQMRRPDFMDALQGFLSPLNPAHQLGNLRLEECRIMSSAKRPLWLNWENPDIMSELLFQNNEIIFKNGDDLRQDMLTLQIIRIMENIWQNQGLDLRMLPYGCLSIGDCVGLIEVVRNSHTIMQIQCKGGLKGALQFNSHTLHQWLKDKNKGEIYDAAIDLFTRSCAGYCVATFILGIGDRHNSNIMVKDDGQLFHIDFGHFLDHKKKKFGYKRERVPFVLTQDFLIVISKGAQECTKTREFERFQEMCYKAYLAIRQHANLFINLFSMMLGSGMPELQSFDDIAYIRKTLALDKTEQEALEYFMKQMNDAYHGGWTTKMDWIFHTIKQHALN

[7] = tested on: KIT (human), P10721 [D816V]
Sequence of KIT (human), P10721 [D816V] (P10721 whole entry D816V, looked up): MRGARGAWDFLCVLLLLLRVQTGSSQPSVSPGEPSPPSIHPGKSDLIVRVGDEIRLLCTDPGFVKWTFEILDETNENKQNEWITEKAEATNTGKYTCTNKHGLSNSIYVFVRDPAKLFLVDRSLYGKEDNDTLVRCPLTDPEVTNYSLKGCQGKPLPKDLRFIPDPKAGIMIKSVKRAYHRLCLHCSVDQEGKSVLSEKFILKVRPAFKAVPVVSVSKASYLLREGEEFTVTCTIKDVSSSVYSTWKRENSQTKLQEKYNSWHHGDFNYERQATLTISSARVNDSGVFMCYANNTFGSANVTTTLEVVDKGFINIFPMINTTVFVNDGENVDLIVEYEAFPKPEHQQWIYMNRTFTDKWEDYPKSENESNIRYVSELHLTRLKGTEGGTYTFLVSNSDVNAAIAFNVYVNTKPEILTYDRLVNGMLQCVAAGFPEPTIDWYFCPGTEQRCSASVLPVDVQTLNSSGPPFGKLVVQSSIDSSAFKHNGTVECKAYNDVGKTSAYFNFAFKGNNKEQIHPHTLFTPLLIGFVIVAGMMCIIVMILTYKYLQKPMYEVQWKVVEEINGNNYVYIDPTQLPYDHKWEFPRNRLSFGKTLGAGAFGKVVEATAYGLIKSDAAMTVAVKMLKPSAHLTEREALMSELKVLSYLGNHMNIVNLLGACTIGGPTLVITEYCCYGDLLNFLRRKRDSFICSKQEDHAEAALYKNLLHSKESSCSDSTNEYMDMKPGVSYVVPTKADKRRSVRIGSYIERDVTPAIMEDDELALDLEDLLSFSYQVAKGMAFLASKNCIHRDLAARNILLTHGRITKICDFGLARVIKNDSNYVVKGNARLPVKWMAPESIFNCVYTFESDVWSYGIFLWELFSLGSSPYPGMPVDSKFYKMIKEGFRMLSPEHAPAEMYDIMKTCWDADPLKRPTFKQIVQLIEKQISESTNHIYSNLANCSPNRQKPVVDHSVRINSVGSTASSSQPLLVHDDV

[8] = tested on: EGFR (human), P00533 [G719S]
[9] = tested on: EIF2AK4 KD2 (human), Q9P2K8 [S808G]
Sequence of EIF2AK4 KD2 (human), Q9P2K8 [S808G] (Q9P2K8 whole entry S808G, looked up): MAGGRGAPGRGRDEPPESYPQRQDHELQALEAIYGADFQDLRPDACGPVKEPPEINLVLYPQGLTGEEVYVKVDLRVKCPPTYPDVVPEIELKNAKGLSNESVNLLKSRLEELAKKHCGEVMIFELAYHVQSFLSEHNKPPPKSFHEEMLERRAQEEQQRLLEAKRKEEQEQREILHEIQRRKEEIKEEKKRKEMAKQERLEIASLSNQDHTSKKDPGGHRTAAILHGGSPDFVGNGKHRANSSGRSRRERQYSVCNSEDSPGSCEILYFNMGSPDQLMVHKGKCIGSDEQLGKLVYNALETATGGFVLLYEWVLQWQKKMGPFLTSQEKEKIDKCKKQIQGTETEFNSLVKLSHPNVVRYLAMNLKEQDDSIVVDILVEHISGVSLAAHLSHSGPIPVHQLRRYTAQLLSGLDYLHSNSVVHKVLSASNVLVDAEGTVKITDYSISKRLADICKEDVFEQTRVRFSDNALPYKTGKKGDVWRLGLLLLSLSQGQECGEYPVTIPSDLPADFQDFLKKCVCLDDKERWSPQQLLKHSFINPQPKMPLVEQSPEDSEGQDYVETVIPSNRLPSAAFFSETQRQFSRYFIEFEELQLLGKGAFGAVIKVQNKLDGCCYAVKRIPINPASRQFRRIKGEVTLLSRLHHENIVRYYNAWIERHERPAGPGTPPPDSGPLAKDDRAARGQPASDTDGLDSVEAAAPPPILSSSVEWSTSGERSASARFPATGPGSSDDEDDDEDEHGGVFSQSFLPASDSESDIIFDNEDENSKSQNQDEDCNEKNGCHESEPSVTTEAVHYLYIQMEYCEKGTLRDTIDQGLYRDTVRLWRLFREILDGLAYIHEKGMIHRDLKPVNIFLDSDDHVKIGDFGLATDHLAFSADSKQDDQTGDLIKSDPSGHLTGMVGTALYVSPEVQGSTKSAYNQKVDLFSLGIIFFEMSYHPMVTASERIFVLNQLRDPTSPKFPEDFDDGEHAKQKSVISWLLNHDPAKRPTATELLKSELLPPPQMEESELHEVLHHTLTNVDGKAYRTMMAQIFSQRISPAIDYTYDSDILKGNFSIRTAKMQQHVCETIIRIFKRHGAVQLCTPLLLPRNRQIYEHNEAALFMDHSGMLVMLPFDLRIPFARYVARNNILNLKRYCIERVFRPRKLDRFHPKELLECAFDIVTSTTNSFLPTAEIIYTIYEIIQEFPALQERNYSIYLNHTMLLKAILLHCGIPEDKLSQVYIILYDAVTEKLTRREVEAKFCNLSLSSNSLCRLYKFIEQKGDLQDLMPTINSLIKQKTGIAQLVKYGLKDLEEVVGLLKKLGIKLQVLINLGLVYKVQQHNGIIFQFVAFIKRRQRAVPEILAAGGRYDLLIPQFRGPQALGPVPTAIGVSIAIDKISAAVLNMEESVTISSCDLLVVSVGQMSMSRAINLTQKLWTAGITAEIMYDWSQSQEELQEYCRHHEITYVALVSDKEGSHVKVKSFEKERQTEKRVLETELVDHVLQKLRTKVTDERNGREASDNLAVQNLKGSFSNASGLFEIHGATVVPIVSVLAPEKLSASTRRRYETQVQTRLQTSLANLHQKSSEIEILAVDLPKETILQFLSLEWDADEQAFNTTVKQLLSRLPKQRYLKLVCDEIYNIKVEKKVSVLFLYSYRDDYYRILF

[10] = tested on: FLT3 (human), P36888 [ITD]
[11] = tested on: ABL1 (human), P00519 [M351T]
[12] = tested on: FLT3 (human), P36888 [N841I]
[13] = tested on: FLT3 (human), P36888 [K663Q]
[14] = tested on: EGFR (human), P00533 [P753S; 747-752 del]
[15] = tested on: PIK3CA (human), P42336 [E545A]
Sequence of PIK3CA (human), P42336 [E545A] (P42336 whole entry E545A, looked up): as the sequence (P42336 whole entry H1047Y, looked up) above, with E545A, Y1047H counted along it

[16] = tested on: PIK3CA (human), P42336 [Q546K]
Sequence of PIK3CA (human), P42336 [Q546K] (P42336 whole entry Q546K, looked up): as the sequence (P42336 whole entry H1047Y, looked up) above, with Q546K, Y1047H counted along it

[17] = tested on: EGFR (human), P00533 [746-750 del]
[18] = tested on: EGFR (human), P00533 [L861Q]
[19] = tested on: ABL1 (human), P00519 [E255K]

Sequence of PIK3CA (human), P42336 [E545K] (P42336 whole entry E545K, looked up): as the sequence (P42336 whole entry H1047Y, looked up) above, with E545K, Y1047H counted along it
Sequence of KIT (human), P10721 [V559D] (P10721 whole entry V559D, looked up): as the sequence (P10721 whole entry D816V, looked up) above, with V559D, V816D counted along it
Sequence of PIK3CA (human), P42336 [C420R] (P42336 whole entry C420R, looked up): as the sequence (P42336 whole entry H1047Y, looked up) above, with C420R, Y1047H counted along it
Sequence of PIK3CA (human), P42336 [I800L] (P42336 whole entry I800L, looked up): as the sequence (P42336 whole entry H1047Y, looked up) above, with I800L, Y1047H counted along it
Sequence of KIT (human), P10721 [V559D/T670I] (P10721 whole entry V559D/T670I, looked up): as the sequence (P10721 whole entry D816V, looked up) above, with V559D, T670I, V816D counted along it

Row | SMILES | kinase still bound, per cent of control [1] | kinase still bound, per cent of control [2] | kinase still bound, per cent of control [3] | kinase still bound, per cent of control [4] | kinase still bound, per cent of control [5] | kinase still bound, per cent of control [6] | kinase still bound, per cent of control [7] | kinase still bound, per cent of control [8] | kinase still bound, per cent of control [9] | kinase still bound, per cent of control [10] | kinase still bound, per cent of control [11] | kinase still bound, per cent of control [12] | kinase still bound, per cent of control [13] | kinase still bound, per cent of control [14] | kinase still bound, per cent of control [15] | kinase still bound, per cent of control [16] | kinase still bound, per cent of control [17] | kinase still bound, per cent of control [18] | kinase still bound, per cent of control [19]
1 | C=CC(=O)Nc1cc(-n2c(=O)ccc3cnc4ccc(-c5cn[nH]c5)cc4c32)ccc1C | 0.45% | 66% | 21% | 96% | 18% | 13% | 5.8% | 79% | 100% | 2.4% | 64% | 1.6% | 18% | 53% | 23% | 21% | 58% | 22% | 39%
2 | COc1cc(C(=O)N2CCC(N3CCN(C)CC3)CC2)ccc1Nc1ncc2c(n1)N(C)c1ccccc1C(=O)N2C | 38% | 100% | 100% | 81% | 89% | 71% | 72% | 86% | 95% | 100% | 94% | 73% | 97% | 84% | 98% | 91% | 72% | 100% | 80%
3 | NC(=O)Nc1cc(-c2cccc(F)c2)sc1C(=O)N[C@@H]1CCCNC1 | 100% |  | 100% |  | 62% | 36% |  | 0% | 0.3% | 0% | 0% | 0% | 0.1% | 4.6% | 16% | 83% | 4.2% | 1.5% | 0%
4 | COc1cc2ncn(-c3cc(OCc4ccccc4C(F)(F)F)c(C(N)=O)s3)c2cc1OC | 24% | 21% | 90% | 21% | 100% | 36% | 1.4% | 98% | 16% | 26% | 81% |  |  | 63% | 54% | 96% |  | 100% | 60%
5 | CCN1CCN(Cc2ccc(NC(=O)c3ccc(C)c(/C=C/c4cnc5[nH]ccc5c4OC)c3)cc2C(F)(F)F)CC1 | 100% | 0% | 100% | 0.05% | 100% | 90% | 0.65% | 0% | 0.6% | 0.35% | 2.2% | 0.25% | 0.05% | 0.55% | 92% |  | 3.8% | 0% | 1%
